According to US20140288025A1, “FATTY ACID ANTIVIRAL CONJUGATES AND THEIR USES” (Catabasis Pharmaceuticals, Inc., priority 2013, published 2014):
Read-outs that look alike come from different tables or passages of the source.

Columns and labels:
NF-κB = NF-κB luciferase reporter assay in RAW 264.7 macrophages; type: cell-based; details: for IC50: Mus musculus
Procedure: RAW 264.7 cells stably expressing a 3×NFkB response element-drive luciferase reporter were seeded into 96 well plates in sera-free medium (Optimem) 18 hours prior to compound application. Compounds of the invention were prepared by first making 100 mM stock solutions in EtOH. […] Cells were then stimulated with 200 ng/ml LPS or vehicle control for 3 hours in the presence of the compounds of the invention. A set of six vehicles was left unstimulated with LPS in order to measure the assay floor. AlamarBlue viability dye (Invitrogen) was added to cells simultaneously with the delivery of LPS (final AlamarBlue concentration of 10%). After the 3 h incubation period with LPS, cell viability was measured by reading fluorescence (excitation 550 nm, emission 595 nm) with a Perkin Elmer Victor V plate reader. Then cell media was aspirated from each well. Luciferase signal was then developed by addition of the Britelite Plus reagent (Perkin Elmer). Luciferase activity was measured with the Perkin Elmer Victor V plate reader. NE-κB activity was expressed as a percent of the vehicle control wells (stimulated with LPS). Compounds were tested at 6 dose point titrations in triplicate to determine IC50 values.

HIV-1IIIB strain = test: HIV-1 cytoprotection assay (CEM-SS cells, MTS dye reduction); type: cell-based
Procedure: Cytoprotection assays are commonly used for evaluating the antiviral efficacy of test compounds against a variety of viruses in different cell lines. […] Briefly, virus and cells are mixed in the presence of test compound and incubated for 6 days. […] Each assay plate contains cell control wells (cells only), virus control wells (cells plus virus), compound toxicity control wells (cells plus compound only), compound colorimetric control wells (compound only), as well as experimental wells (compound plus cells plus virus). Cytoprotection and compound cytotoxicity are assessed by MTS (CellTiter®96 Reagent, Promega, Madison Wis.) dye reduction. […] Each assay includes the HIV reverse transcriptase inhibitor AZT as a positive control.
CEM-SS cells were obtained from the NIH AIDS Research and Reference Reagent Program and are routinely passaged in T-75 flasks using standard tissue culture techniques based on the specifications provided by the supplier. On the day preceding the assay, the cells are split 1:2 to assure they are in an exponential growth phase at the time of infection. Total cell number and percent viability determinations are performed using a hemacytometer and trypan blue exclusion. […] The cells are re-suspended at 5×10^4 cells/mL in tissue culture medium and added to the drug-containing 96-well microtiter plates in a volume of 50 μl.
The viruses used for this assay are CXCR4-tropic laboratory virus strains. The most commonly used strains are HIV-1RF and HIV-1IIIB (each obtained from the NIH AIDS Research and Reference Reagent Program). For each assay, a pre-titered aliquot of virus is removed from the freezer (−80° C.) and allowed to thaw slowly to room temperature in a biological safety cabinet. The virus is re-suspended and diluted into tissue culture medium such that the amount of virus added to each well in a volume of 50 μl is the amount determined to give between 85 to 95% cell killing at 6 days post-infection.
Each plate contains cell control wells (cells only), virus control wells (cells plus virus), drug cytotoxicity wells (cells plus drug only), drug colorimetric control wells (drug only), background control wells (media only), as well as experimental wells (drug plus cells plus virus). Samples are evaluated for antiviral efficacy with triplicate measurements using 6 concentrations at half-log dilutions (12 concentrations can also be performed) in order to determine IC50 values and with duplicate measurements to determine cellular cytotoxicity, if detectable.
100% EtOH is added to the compounds of the invention such that the EtOH stock concentration is 50 mM. […] (VWR Ultrasonics Cleaner, Model #B8500A-DTH with “Sonics Power” set to HI); e) The 1:2 serial dilutions of the 1 mM 10× stock solution with FBS/2% EtOH are prepared such that the concentrations of the 10× stock solutions are 1 mM, 0.5 mM, 0.25 mM, etc., in FBS with 2% EtOH. Medium is aspirated off cells and replaced with serum free medium.

[1] = RAW 264.7 reporter cells, 200 ng/ml LPS, 3 hours
[2] = Human immunodeficiency virus 1, IIIB, CEM-SS, 144 h, read-out: IC50 HIV-1IIIB strain (nM)
[3] = RAW264.7, RAW 264.7 reporter cells, 200 ng/ml LPS, 3 hours, read-out: NF-kB inhibitory activity IC50
[4] = RAW264.7, 3 h, read-out: NF-kB inhibitory activity IC50 μM
[5] = CEM-SS cells, HIV-1 IIIB strain, 6 days, MTS

SMILES | IC50 (NF-κB; [3]) [µM] | other results
CC/C=C\C/C=C\C/C=C\C/C=C\C/C=C\C/C=C\CCC(=O)NCCNP(=O)(OC[C@H]1O[C@H](n2cc(C)c(=O)[nH]c2=O)C[C@@H]1N=[N+]=[N-])Oc1ccccc1 (stereo partly drawn) [II-25, ((2S,3S,5S)-3-azido-5-(5-methyl-2,4-dioxo-3,4-dihydropyrimidin-1(2H)-yl)tetrahydrofuran-2-yl)methyl phenyl (2-((4Z,7Z,10Z,13Z,16Z,19Z)-docosa-4,7,10,13,16,19-hexaenamido)ethyl)phosphoramidate] |  | NF-kB inhibitory activity IC50 μM (NF-κB; [1]): + +; IC50 (HIV-1IIIB strain; [2]): < 100 nM
CC/C=C\C/C=C\C/C=C\C/C=C\C/C=C\C/C=C\CCC(=O)NCCOCCNC(=O)OC[C@H]1O[C@H](n2cc(C)c(=O)[nH]c2=O)C[C@@H]1N=[N+]=[N-] [Example V-8, ((2S,3S,5S)-3-azido-5-(5-methyl-2,4-dioxo-3,4-dihydropyrimidin-1(2H)-yl)tetrahydrofuran-2-yl)methyl (2-(2-((4Z,7Z,10Z,13Z,16Z,19Z)-docosa-4,7,10,13,16,19-hexaenamido)ethoxy)ethyl)carbamate] | 50 to 200 | 
CC(C)CN(C[C@@H](O)[C@H](Cc1ccccc1)NC(=O)O[C@H]1CO[C@H]2OCC[C@H]21)S(=O)(=O)c1ccc(N)cc1 [Darunavir, darunavir, reference compound] |  | IC50 (NF-κB; [4]): > 200 µM
CC/C=C\C/C=C\C/C=C\C/C=C\C/C=C\CCCC(=O)NCCNP(=O)(OC)OC[C@H]1O[C@H](n2cc(C)c(=O)[nH]c2=O)C[C@@H]1N=[N+]=[N-] (stereo partly drawn) [II-30, ((2S,3S,5S)-3-azido-5-(5-methyl-2,4-dioxo-3,4-dihydropyrimidin-1(2H)-yl)tetrahydrofuran-2-yl)methyl methyl (2-((5Z,8Z,11Z,14Z,17Z)-icosa-5,8,11,14,17-pentaenamido)ethyl)phosphoramidate] |  | NF-kB inhibitory activity IC50 μM (NF-κB; [1]): + +; IC50 (HIV-1IIIB strain; [2]): > 100 nM
CC/C=C\C/C=C\C/C=C\C/C=C\C/C=C\C/C=C\CCC(=O)Nc1ccc(S(=O)(=O)N(CC(C)C)C[C@@H](O)[C@H](Cc2ccccc2)NC(=O)O[C@H]2CO[C@H]3OCC[C@H]32)cc1 [VII-1, (3R,3aS,6aR)-hexahydrofuro[2,3-b]furan-3-yl ((2S,3R)-4-(4-((4Z,7Z,10Z,13Z,16Z,19Z)-docosa-4,7,10,13,16,19-hexaenamido)-N-isobutylphenylsulfonamido)-3-hydroxy-1-phenylbutan-2-yl)carbamate] |  | IC50 (NF-κB; [4]): 50 to 200 µM; IC50 HIV-1IIIB strain (nM) (HIV-1IIIB strain; [5]): + ++
Nc1ccn([C@@H]2CS[C@H](CO)O2)c(=O)n1 [Lamivudine, lamivudine, reference compound] | > 200 | 
CC/C=C\C/C=C\C/C=C\C/C=C\C/C=C\C/C=C\CCC(=O)Nc1ncc2ncn(CCC(CO)CO)c2n1 [Example V-11, (4Z,7Z,10Z,13Z,16Z,19Z)—N-(9-(4-hydroxy-3-(hydroxymethyl)butyl)-9H-purin-2-yl)docosa-4,7,10,13,16,19-hexaenamide] | 50 to 200 | 
CC/C=C\C/C=C\C/C=C\C/C=C\C/C=C\C/C=C\CCC(=O)Nc1ncc2ncn(CCC(COC(C)=O)COC(C)=O)c2n1 [Example V-10, 2-(2-(2-((4Z,7Z,10Z,13Z,16Z,19Z)-docosa-4,7,10,13,16,19-hexaenamido)-9H-purin-9-yl)ethyl)propane-1,3-diyl diacetate] | 50 to 200 | 
CC/C=C\C/C=C\C/C=C\C/C=C\C/C=C\C/C=C\CCC(=O)NCCNC(=O)OC[C@H]1O[C@H](n2cc(C)c(=O)[nH]c2=O)C[C@@H]1N=[N+]=[N-] [Example V-5, ((2S,3S,5S)-3-azido-5-(5-methyl-2,4-dioxo-3,4-dihydropyrimidin-1(2H)-yl)tetrahydrofuran-2-yl)methyl (2-((4Z,7Z,10Z,13Z,16Z,19Z)-docosa-4,7,10,13,16,19-hexaenamido)ethyl)carbamate] |  | NF-kB inhibitory activity IC50 μM (NF-κB; [1]): + +; IC50 (HIV-1IIIB strain; Human immunodeficiency virus 1, 144 h, CEM-SS cells, HIV-1 IIIB strain, 6 days, MTS, read-out: IC50 HIV-1IIIB strain): > 100 nM
CC/C=C\C/C=C\C/C=C\C/C=C\C/C=C\CCCC(=O)Nc1ncc2ncn(CCC(COC(C)=O)COC(C)=O)c2n1 [Example V-12, 2-(2-(2-((5Z,8Z,11Z,14Z,17Z)-icosa-5,8,11,14,17-pentaenamido)-9H-purin-9-yl)ethyl)propane-1,3-diyl diacetate] | 50 to 200 | 
CC/C=C\C/C=C\C/C=C\C/C=C\C/C=C\C/C=C\CCC(=O)N[C@H](C(=O)OC[C@H]1O[C@H](n2cc(C)c(=O)[nH]c2=O)C[C@@H]1N=[N+]=[N-])C(C)C [Example V-9, (S)-((2S,3S,5S)-3-azido-5-(5-methyl-2,4-dioxo-3,4-dihydropyrimidin-1(2H)-yl)tetrahydrofuran-2-yl)methyl 2-((4Z,7Z,10Z,13Z,16Z,19Z)-docosa-4,7,10,13,16,19-hexaenamido)-3-methylbutanoate] | 50 to 200 | 
Cc1cn([C@H]2C[C@H](N=[N+]=[N-])[C@@H](CO)O2)c(=O)[nH]c1=O [Zidovudine, reference compound] | > 200 | 
C=C1[C@H](CO)[C@@H](O)C[C@@H]1n1cnc2c(=O)[nH]c(N)nc21 [Entecavir, entecavir, reference compound] | > 200 | 
CC(=O)OCC(CCn1cnc2cnc(N)nc21)COC(C)=O [Famciclovir, reference compound] | > 200 | 
CC/C=C\C/C=C\C/C=C\C/C=C\C/C=C\C/C=C\CCC(=O)NCCN(C)CCNC(=O)OC[C@H]1O[C@@H](n2ccc(N)nc2=O)[C@](C)(F)[C@@H]1O [Example V-30, ((2R,3R,4R,5R)-5-(4-amino-2-oxopyrimidin-1(2H)-yl)-4-fluoro-3-hydroxy-4-methyltetrahydrofuran-2-yl)methyl (2-((2-((4Z,7Z,10Z,13Z,16Z,19Z)-docosa-4,7,10,13,16,19-hexaenamido)ethyl)(methyl)amino)ethyl)carbamate] | < 50 | 
CC/C=C\C/C=C\C/C=C\C/C=C\C/C=C\CCCC(=O)Nc1ccc(S(=O)(=O)N(CC(C)C)C[C@@H](O)[C@H](Cc2ccccc2)NC(=O)O[C@H]2CO[C@H]3OCC[C@H]32)cc1 [VII-2, (3R,3aS,6aR)-hexahydrofuro[2,3-b]furan-3-yl((2S,3R)-3-hydroxy-4-(4-((5Z,8Z,11Z,14Z,17Z)-icosa-5,8,11,14,17-pentaenamido)-N-isobutylphenylsulfonamido)-1-phenylbutan-2-yl)carbamate] | < 50 | IC50 HIV-1IIIB strain (nM) (HIV-1IIIB strain; [5]): + ++
CC/C=C\C/C=C\C/C=C\C/C=C\C/C=C\CCCC(=O)NCCNP(=O)(OC)OC[C@@H]1O[C@H](n2ccc(N)nc2=O)CS1 (stereo partly drawn) [II-70, ((2R,5S)-5-(4-amino-2-oxopyrimidin-1(2H)-yl)-1,3-oxathiolan-2-yl)methyl methyl (2-((5Z,8Z,11Z,14Z,17Z)-icosa-5,8,11,14,17-pentaenamido)ethyl)phosphoramidate] |  | IC50 (NF-κB; [4]): 50 to 200 µM
